test system: MCH receptors; test: MCH receptor activity class (method not given); details: MCH receptor; class by percent of control at 10^-7 M or IC50

Row | Structure (SMILES) | class
1 | CN(C)c1nc(N[C@H]2CC[C@@H](NC(=S)Nc3ccc(Sc4ccc([N+](=O)[O-])cc4)cc3)CC2)nc2c1CCCC2 [compound 2050] | 3 (Class 3 The value of percent of control at 10^−7 M was more than 60% or the value of IC50 was more than 200 nM.)
2 | CN(C)c1nc(N[C@H]2CC[C@@H](NC(=S)Nc3ccc(S(N)(=O)=O)cc3)CC2)nc2c1CCCC2 [compound 2051] | 3 (Class 3 The value of percent of control at 10^−7 M was more than 60% or the value of IC50 was more than 200 nM.)
3 | Cc1ccc(CCNC(=S)N[C@H]2CC[C@@H](Nc3nc4c(c(N(C)C)n3)CCCC4)CC2)cc1 [compound 2052] | 3 (Class 3 The value of percent of control at 10^−7 M was more than 60% or the value of IC50 was more than 200 nM.)
4 | CN(C)c1nc(N[C@H]2CC[C@@H](NC(=S)Nc3ccc(Oc4ccccc4)cc3)CC2)nc2c1CCCC2 [compound 2053] | 3 (Class 3 The value of percent of control at 10^−7 M was more than 60% or the value of IC50 was more than 200 nM.)
5 | CN(C)c1nc(N[C@H]2CC[C@@H](NC(=S)Nc3ccc4c(c3)CCC4)CC2)nc2c1CCCC2 [compound 2054] | 3 (Class 3 The value of percent of control at 10^−7 M was more than 60% or the value of IC50 was more than 200 nM.)
6 | CN(C)c1nc(N[C@H]2CC[C@@H](NC(=S)NC3CCCCCC3)CC2)nc2c1CCCC2 [compound 2055] | 3 (Class 3 The value of percent of control at 10^−7 M was more than 60% or the value of IC50 was more than 200 nM.)
7 | C#CCNC(=S)N[C@H]1CC[C@@H](Nc2nc3c(c(N(C)C)n2)CCCC3)CC1 [compound 2056] | 3 (Class 3 The value of percent of control at 10^−7 M was more than 60% or the value of IC50 was more than 200 nM.)
8 | CN(C)c1nc(N[C@H]2CC[C@@H](NC(=S)Nc3ccc(S(=O)(=O)N4CCCCC4)cc3)CC2)nc2c1CCCC2 [compound 2057] | 3 (Class 3 The value of percent of control at 10^−7 M was more than 60% or the value of IC50 was more than 200 nM.)
9 | CN(C)c1nc(N[C@H]2CC[C@@H](NC(=S)NCCC3=CCCCC3)CC2)nc2c1CCCC2 [compound 2058] | 3 (Class 3 The value of percent of control at 10^−7 M was more than 60% or the value of IC50 was more than 200 nM.)
10 | Cc1ccc(C)c(NC(=S)N[C@H]2CC[C@@H](Nc3nc4c(c(N(C)C)n3)CCCC4)CC2)c1 [compound 2059] | 3 (Class 3 The value of percent of control at 10^−7 M was more than 60% or the value of IC50 was more than 200 nM.)
11 | CC(C)c1ccc(NC(=S)N[C@H]2CC[C@@H](Nc3nc4c(c(N(C)C)n3)CCCC4)CC2)c(Br)c1 [compound 2060] | 3 (Class 3 The value of percent of control at 10^−7 M was more than 60% or the value of IC50 was more than 200 nM.)
12 | CN(C)c1nc(N[C@H]2CC[C@@H](NC(=S)Nc3cc(F)ccc3Br)CC2)nc2c1CCCC2 [compound 2061] | 3 (Class 3 The value of percent of control at 10^−7 M was more than 60% or the value of IC50 was more than 200 nM.)
13 | COc1ccccc1CNC(=S)N[C@H]1CC[C@@H](Nc2nc3c(c(N(C)C)n2)CCCC3)CC1 [compound 2062] | 3 (Class 3 The value of percent of control at 10^−7 M was more than 60% or the value of IC50 was more than 200 nM.)
14 | Cc1ccc(NC(=S)N[C@H]2CC[C@@H](Nc3nc4c(c(N(C)C)n3)CCCC4)CC2)cc1C [compound 2063] | 3 (Class 3 The value of percent of control at 10^−7 M was more than 60% or the value of IC50 was more than 200 nM.)
15 | CN(C)c1nc(N[C@H]2CC[C@@H](NC(=S)NCCCCc3ccccc3)CC2)nc2c1CCCC2 [compound 2064] | 3 (Class 3 The value of percent of control at 10^−7 M was more than 60% or the value of IC50 was more than 200 nM.)
16 | CN(C)c1nc(N[C@H]2CC[C@@H](NC(=S)Nc3ccc(C(C)(C)C)cc3)CC2)nc2c1CCCC2 [compound 2065] | 3 (Class 3 The value of percent of control at 10^−7 M was more than 60% or the value of IC50 was more than 200 nM.)
17 | CN(C)c1nc(N[C@H]2CC[C@@H](NC(=S)Nc3cc(Cl)ccc3F)CC2)nc2c1CCCC2 [compound 2066] | 3 (Class 3 The value of percent of control at 10^−7 M was more than 60% or the value of IC50 was more than 200 nM.)
18 | CN(C)c1nc(N[C@H]2CC[C@@H](NC(=S)NCC3CC3)CC2)nc2c1CCCC2 [compound 2068] | 3 (Class 3 The value of percent of control at 10^−7 M was more than 60% or the value of IC50 was more than 200 nM.)

Row | Structure (SMILES) | class
19 | CCOC(=O)c1c(NC(=S)N[C@H]2CC[C@@H](Nc3nc4c(c(N(C)C)n3)CCCC4)CC2)sc2c1CCCC2 [compound 2069] | 3 (Class 3 The value of percent of control at 10^−7 M was more than 60% or the value of IC50 was more than 200 nM.)
20 | CN(C)c1nc(N[C@H]2CC[C@@H](NC(=S)Nc3ccc(F)cc3Br)CC2)nc2c1CCCC2 [compound 2070] | 3 (Class 3 The value of percent of control at 10^−7 M was more than 60% or the value of IC50 was more than 200 nM.)
21 | CN(C)c1nc(N[C@H]2CC[C@@H](NC(=S)Nc3ccc(F)c(Cl)c3)CC2)nc2c1CCCC2 [compound 2071] | 3 (Class 3 The value of percent of control at 10^−7 M was more than 60% or the value of IC50 was more than 200 nM.)
22 | CN(C)c1ccc(NC(=S)N[C@H]2CC[C@@H](Nc3nc4c(c(N(C)C)n3)CCCC4)CC2)cc1 [compound 2072] | 3 (Class 3 The value of percent of control at 10^−7 M was more than 60% or the value of IC50 was more than 200 nM.)
23 | CCN(CC)CCCNC(=S)N[C@H]1CC[C@@H](Nc2nc3c(c(N(C)C)n2)CCCC3)CC1 [compound 2073] | 3 (Class 3 The value of percent of control at 10^−7 M was more than 60% or the value of IC50 was more than 200 nM.)
24 | CN(C)c1nc(N[C@H]2CC[C@@H](NC(=S)NCCN3CCOCC3)CC2)nc2c1CCCC2 [compound 2074] | 3 (Class 3 The value of percent of control at 10^−7 M was more than 60% or the value of IC50 was more than 200 nM.)
25 | CN(C)c1nc(N[C@H]2CC[C@@H](NC(=S)Nc3ccc(-c4nc5c6ccccc6c6ccccc6c5o4)cc3)CC2)nc2c1CCCC2 [compound 2075] | 3 (Class 3 The value of percent of control at 10^−7 M was more than 60% or the value of IC50 was more than 200 nM.)
26 | CN(C)c1nc(N[C@H]2CC[C@@H](NC(=S)Nc3cccnc3)CC2)nc2c1CCCC2 [compound 2076] | 3 (Class 3 The value of percent of control at 10^−7 M was more than 60% or the value of IC50 was more than 200 nM.)
27 | CN(C)c1ccc(/N=N/c2ccc(NC(=S)N[C@H]3CC[C@@H](Nc4nc5c(c(N(C)C)n4)CCCC5)CC3)cc2)cc1 [compound 2077] | 3 (Class 3 The value of percent of control at 10^−7 M was more than 60% or the value of IC50 was more than 200 nM.)
28 | CN(C)c1nc(N[C@H]2CC[C@@H](NC(=S)NCCCN3CCOCC3)CC2)nc2c1CCCC2 [compound 2078] | 3 (Class 3 The value of percent of control at 10^−7 M was more than 60% or the value of IC50 was more than 200 nM.)
29 | CN(C)c1nc(N[C@H]2CC[C@@H](NC(=S)NCc3ccc(Cl)cc3)CC2)nc2c1CCCC2 [compound 2079] | 3 (Class 3 The value of percent of control at 10^−7 M was more than 60% or the value of IC50 was more than 200 nM.)
30 | CN(C)c1nc(N[C@H]2CC[C@@H](NC(=S)Nc3ccc(/N=N/c4ccccc4)cc3)CC2)nc2c1CCCC2 [compound 2080] | 3 (Class 3 The value of percent of control at 10^−7 M was more than 60% or the value of IC50 was more than 200 nM.)
31 | CN(C)c1nc(N[C@H]2CC[C@@H](NC(=S)NCCN3CCCCC3)CC2)nc2c1CCCC2 [compound 2081] | 3 (Class 3 The value of percent of control at 10^−7 M was more than 60% or the value of IC50 was more than 200 nM.)
32 | CN(C)c1nc(N[C@H]2CC[C@@H](NC(=S)Nc3ccc(-n4cccn4)cc3)CC2)nc2c1CCCC2 [compound 2082] | 3 (Class 3 The value of percent of control at 10^−7 M was more than 60% or the value of IC50 was more than 200 nM.)
33 | CN(C)c1nc(N[C@H]2CC[C@@H](NC(=S)Nc3cccc4nsnc34)CC2)nc2c1CCCC2 [compound 2083] | 3 (Class 3 The value of percent of control at 10^−7 M was more than 60% or the value of IC50 was more than 200 nM.)
34 | CN(C)c1nc(N[C@H]2CC[C@@H](NC(=S)Nc3ccc4nsnc4c3)CC2)nc2c1CCCC2 [compound 2084] | 3 (Class 3 The value of percent of control at 10^−7 M was more than 60% or the value of IC50 was more than 200 nM.)
35 | Cc1noc(C)c1NC(=S)N[C@H]1CC[C@@H](Nc2nc3c(c(N(C)C)n2)CCCC3)CC1 [compound 2085] | 3 (Class 3 The value of percent of control at 10^−7 M was more than 60% or the value of IC50 was more than 200 nM.)

same assay, conditions: class by percent of control at 10^-7 M or IC50

Row | Structure (SMILES) | class
36 | CN(C)c1nc(N[C@H]2CC[C@@H](NC(=S)Nc3ccc(-c4cnco4)cc3)CC2)nc2c1CCCC2 [compound 2086] | 3 (Class 3 The value of percent of control at 10^−7 M was more than 60% or the value of IC50 was more than 200 nM.)
37 | CN(C)c1nc(N[C@H]2CC[C@@H](NC(=S)Nc3ccc(N4CCOCC4)nc3)CC2)nc2c1CCCC2 [compound 2087] | 3 (Class 3 The value of percent of control at 10^−7 M was more than 60% or the value of IC50 was more than 200 nM.)
38 | CN(C)c1nc(N[C@H]2CC[C@@H](NC(=S)Nc3ccc(Oc4ccccc4)nc3)CC2)nc2c1CCCC2 [compound 2088] | 3 (Class 3 The value of percent of control at 10^−7 M was more than 60% or the value of IC50 was more than 200 nM.)
39 | CN(C)c1cc(N[C@H]2CC[C@@H](NC(=O)Nc3ccccc3Cl)CC2)nc2ccccc12 [compound 2089] | 2 (Class 2: The value of percent of control at 10^−7 M was from 40% to 60% or the value of IC′50 was from 50 nM to 200 nM.)
40 | Cc1cccc(C)c1NC(=O)N[C@H]1CC[C@@H](Nc2cc(N(C)C)c3ccccc3n2)CC1 [compound 2090] | 3 (Class 3 The value of percent of control at 10^−7 M was more than 60% or the value of IC50 was more than 200 nM.)
41 | CN(C)c1cc(N[C@H]2CC[C@@H](NC(=O)Nc3ccc(F)cc3F)CC2)nc2ccccc12 [compound 2091] | 3 (Class 3 The value of percent of control at 10^−7 M was more than 60% or the value of IC50 was more than 200 nM.)
42 | CCc1cccc(C)c1NC(=O)N[C@H]1CC[C@@H](Nc2cc(N(C)C)c3ccccc3n2)CC1 [compound 2092, N-(cis-4-{[4-(dimethylamino)quinolin-2-yl]amino}cyclohexyl)-N′-(2-ethyl-6-methylphenyl)urea] | 2 (Class 2: The value of percent of control at 10^−7 M was from 40% to 60% or the value of IC′50 was from 50 nM to 200 nM.)
